Reference: PMC2631555 (Bioorganic & medicinal chemistry letters, 2008)

Key:
[1] = Solubility in PBS + 5% DMSO; conditions: 2 h, room temperature
[2] = PAMPA
Vero cells = conditions: read-out: Vero EC50; 48 h exposure, CellTiter-Glo
tubulin = conditions: 10 µM compound; purified tubulin 7.2 µM, GTP, 37°C, 0.5% DMSO

## COc1cc2c(c(OC)c1OC)-c1ccc(OC)c(=O)cc1[C@@H](NC(C)=O)CC2 [Colchicine]
[1]
  Solubility: highly soluble

## COc1cc2c(c(OC)c1OC)-c1ccc(OC)c(=O)cc1[C@@H](NC(=O)CCCCCNC(=O)COc1ccc(/C=C/C3=[N+]4C(=Cc5ccc(-c6ccc[nH]6)n5[B-]4(F)F)C=C3)cc1)CC2 [colchicine-646]
[2]
  Permeability: <10 10^-6 cm/s
Vero cells
  EC50: > 10 µM

## CC(=O)O[C@H]1C(=O)[C@@]2(C)[C@H]([C@H](OC(=O)c3ccccc3)[C@]3(O)C[C@H](OC(=O)[C@H](O)[C@@H](NC(=O)c4ccccc4)c4ccccc4)C(C)=C1C3(C)C)[C@]1(OC(C)=O)CO[C@@H]1C[C@@H]2O [paclitaxel]
tubulin
  Microtubule formation compared with untreated tubulin: enhanced
